Bridge positions count the residues as written; N and C are the ends. Peptide text beside a SMILES is read from it.

Consider one compound from US4058512A, “Synthetic peptides having growth promoting activity” (AB Kabi, priority 1975, dated 1977).

The test system of the experiment is human embryonic lung fibroblasts. Description: Growth promoting activity in human embryonic lung fibroblasts, cell counting in a counting chamber. Format: cell-based. The conditions noted are these: for Growth stimulation in %: per cent increase over basal value with 0.67% calf serum; for No. of cells × 10^6: 0.67% calf serum. As to the method:
Tests of the growth promoting activity have been performed in human embryonic lung fibroblasts and the growth promoting activity is measured by cell counting in a counting chamber and expressed as per cent increase over a basal value obtained with using 0.67% calf serum.

For `C[C@@H](O)[C@H](NC(=O)[C@@H]1CSSC[C@H](NC(=O)[C@H](CO)NC(=O)[C@H](CCC(=O)O)NC(=O)[C@H](CCC(N)=O)NC(=O)[C@@H](N)CC(=O)O)C(=O)N[C@@H](CCCCN)C(=O)NCC(=O)N[C@@H](CCCNC(=N)N)C(=O)N1)C(=O)N[C@@H](CCC(=O)O)C(=O)NCC(=O)N[C@@H](Cc1ccccc1)C(=O)O` [tridecapeptide (cyclic)] (H-DQESCKGRCTEGF-OH; disulfide 5-9), the “Growth stimulation in %” value amounted to 14% (1 μg per ml medium); 66% (5 μg per ml medium); 60% (10 μg per ml medium); 51% (25 μg per ml medium); 31% (50 μg per ml medium). For the same compound, the “No. of cells × 10^6” value is 2.35 × 10^6 (1 μg tridecapeptide per ml medium); 3.4 × 10^6 (5 μg tridecapeptide per ml medium); 3.3 × 10^6 (10 μg tridecapeptide per ml medium); 3.1 × 10^6 (25 μg tridecapeptide per ml medium); 2.7 × 10^6 (50 μg tridecapeptide per ml medium). Besides, the “Effect on total number of cells produced” value runs as follows: (dosages higher than 10 μug. per ml. of medium) “slight inhibitory effect”; (dosages of from 1 to 10 μug. of polypeptide per ml. of medium) “dose related increase”.
